The values below come from patent publication US10357486B2, “Treatment of cognitive impairment with PDE4 inhibitor” (Universiteit Maastricht, priority 2013, dated 2019).

The test system of experiment [1] is 60 to 80 years old subjects (Impaired Elderly and Healthy Elderly). Nature of the experiment: Verbal Learning Task (VLT) in 60 to 80 years old subjects, interim analysis. The format is in vivo, human. The procedure: (§1) The study is conducted according to a double-blind, placebo-controlled, four-period cross-over design. Forty healthy subjects, both male and female within an age range of 60 to 80 years are planned to be included in the study in 2 groups: 1) 20 subjects with a memory performance between 1-2 Standard Deviation below the average for their age, gender, and educated level (Impaired Elderly) and 2) 20 subjects with age (±3 years), gender, and educational level matched (in order to speed up the study matching was stopped after the interim analysis) with an average memory performance between 0.5 Standard Deviation below and 0.5 Standard Deviation above from normative values (Healthy Elderly). Classification in terms of impaired or healthy elderly will be determined by a one-off testing of memory performance using the Rey Verbal Learning Task (Rey A; L'examen psychologique dans les cas d'encephalopathy traumatique 1958 Paris; Presses Universitaire de France; or Van der Elst et al; J Int Neuropsychol Soc 2005, 11 (3), pp 290-302) according to fully standardized procedures as applied in The Maastricht Aging Study (Jolles et al; Maastricht Aging Study; determinants of cognitive aging; Maastricht, The Netherlands, Neuropsych Publishers 1995). Normative data for each individual subject will be derived also from the Maastricht Aging Study using the regression formula as described by Van der Elst et al (Van der Elst et al; J Int Neuropsychol Soc 2005, 11 (3), pp 290-302).
All subjects within their corresponding groups (either Healthy Elderly n=20 or Impaired Elderly n=20) will be randomized in a double blind fashion to 1 of 4 treatment sequences, each sequence consisting of the following periods: A) Placebo+placebo; B) Roflumilast 100 mcg+placebo; C) Roflumilast […]+placebo and D) Roflumilast 1000 mcg (500+500 mcg) according to a computer-generated allocation schedule in a cross-over design. Between each of the four treatment sequences there will be a 12 days washout period.
Cognitive status will be quantified using computerized cognitive battery, a validated tool for measuring the cognitive impairment in humans. The battery will consist of: VLT, Spatial Memory Task (SMT), Stroop Task, and Bond-Lader Visual Analogue Scales (BL-VAS).
Verbal learning task (VLT) The Rey VLT as modified by Riedel and colleagues (Riedel, Klaasen et al, Psychopharmacology (Berlin) 1999 Vol 141(4) pp 362-369) is used. This modified VLT maximizes the possibility of measuring enhancement rather than only impairment, by means of prolonging the list. The test consists of a list of 30 monosyllabic words (18 nouns and 12 adjectives). The words are shown on a computer screen for 1 second. Three trials with the same item sequence are presented. Each trial ends with a free recall of the words (immediate recall). Forty-five minutes after the first exposure, the subject is asked to recall as many words as possible (delayed recall). […] The words are shown on a computer screen for 2 seconds and subjects are asked to rate whether they were presented in the learning trial by a “yes/no” response. The inter-word interval is 2 seconds. 24 Hours after the immediate recall, subjects will return to the lab for a second delayed recall and recognition. The remaining 15 old words and 15 new words will be presented during recognition. EEG will be recorded during the immediate recall and the first recognition test on the test day. […]

Experiment [2] has the same test system. Briefly: Spatial Memory Task and Stroop task in 60 to 80 years old subjects, interim analysis. The format is in vivo, human. To be noted: 100, 250, 1000 mcg. The procedure:
as §1, with “Normative data for each individual subject will be derived also from the Maastricht Aging Study using the regression formula as described by Van der Elst et al (Van der Elst et al; J Int Neuropsychol Soc 2005, 11 (3), pp 290-302).” left out

`O=C(Nc1c(Cl)cncc1Cl)c1ccc(OC(F)F)c(OCC2CC2)c1` [roflumilast, N-(3,5-dichloropyridin-4-yl)-3-cyclopropylmethoxy-4-difluoromethoxybenzamide]: the “number of words on the 3rd trial of VLT” value in experiment [1] (100 mcg single dose, elderly subjects, placebo 8.81) turned out to be 10.28 words. Also, the “placebo-corrected fold-improvement in VLT” value in experiment [1] (100 mcg single dose, interim data of the elderly study) turned out to be 1.16. Moreover, the “increase in the number of correct words recalled after 45 min delayed recall trial of VLT, compared to placebo” value was 1.7 words in experiment [1] (100 mcg single dose, pooled interim analysis) and 1.6 words in experiment [1] (1000 mcg single dose, pooled interim analysis). Moreover, the “increase in the number of correct words immediately recalled after the 3rd trial of VLT, compared to placebo” value in experiment [1] (100 mcg single dose, pooled interim analysis, 9 Impaired and 4 Healthy Elderly) was 1.5 words. The “difference between placebo and drug treatment in the Spatial Memory Task and Stroop task” value in experiment [2] is reported as “No statistically significant differences”.
